# Where a name gives a salt, the structure may show the parent alone.
# Test system: 3D INSIGHT Islet Microtissues (primary human pancreatic islet cells)
# Test: Glucagon secretion assay (glucagon ELISA) in 3D INSIGHT Islet Microtissues
# Assay type: cell-based
# Settings: for dose dependency of the increase in glucagon secretion: Example 2, donor AFCS437, 1, 10 and 100 μM; for fold induction at 10 µM / fold induction at 100 µM: Homo sapiens, Pancreatic islet; for fold induction at 10 µM: donor AFBM114, 10 μM; for fold induction at 100 µM: donor AFBM114, 100 μM
# Excerpt: This and the following example make use of 3D INSIGHT® Islet Microtissues (InSphero AG, Schlieren, Switzerland), an in vitro model system for diabetes research produced by optimized dissociation and controlled scaffold-free reaggregation of primary human pancreatic islet cells. This allows precise control over the newly forming islet microtissue size and eliminates contaminating exocrine material while ensuring homogeneous and native-like distribution of endocrine cells within each tissue. The resulting islet tissues display long-term (>28 days) and robust function, enabling high throughput and longitudinal study of pancreatic islet function, regulation, and preservation.
# 1. The diabetes model system 3D INSIGHT® Islet Microtissues was obtained from a donor. 2. […] 3. Six replicates for each sample were tested. 4. L-arginine was used as a positive control. 5. DMSO was used a solvent for BF2649 hydrochloride and cyproheptadine hydrochloride; ddH2O was used as a solvent for L-arginine. […] 6. Glucagon secretion was quantified with a glucagon ELISA (Mercodia, Uppsala, Sweden). 7. Total ATP content was also measured during the assay.
# Referring to FIG. 5, a timeline (500) of the assay is shown. Day 0 (510) involved producing the 3D INSIGHT® Human Islet Microtissues. On Day 5 (520), the samples were moved to a receiving plate. On Day 7 (530), the islet size, viability, and function were verified by quality control. On the final day of the test (540), the glucagon secretion assay was performed with ELISA, and ATP content was measured.
# (§1) Before the assay, conditioned media was removed, islet microtissue washed twice with Kreb's Ringer HEPES buffer (KRHB) containing 5.5 mM glucose and were equilibrated in KRHB containing 5-5 mM glucose for 1.5 hours. Equilibration buffer was removed, islet microtissues were washed twice in KRHB with 5-5 mM glucose. Glucagon secretion was performed in KRHB with either 8 mM or 1 mM glucose for 2 hours in the presence of the test compounds. Conditioned KRHB were collected for analysis of glucagon content with an ELISA (Mercodia, Uppsala, Sweden).
# A second donor (UNOS ID #AFCS437) was used as well.
# as §1, with “5-5” for “5.5”
# [1] = Example 1, donor AFBM114, 2 hours
# [2] = Example 1, donor AFBM114, 2 hours, compared to vehicle at 1 mM glucose (FIG. 6)
compound,measurement,setting,value
"Clc1ccc(CCCOCCCN2CCCCC2)cc1 [BF2649 hydrochloride, 1-{3-[3-(4-chlorophenyl)propoxy]propyl}piperidine]",dose dependence of the increase in glucagon secretion,"Example 1, donor AFBM114, 1, 10 and 100 μM, 1 mM glucose",dose dependent
same,"increase in glucagon secretion, 1 mM glucose versus 8 mM glucose",[1],higher at 1 mM glucose than at 8 mM glucose
same,glucagon secretion (effect),[2],increased glucagon secretion
same,glucagon secretion (effect),"Example 2, donor AFBM114, 10 μM, 8 mM glucose (FIG. 8)",increased glucagon secretion
same,glucagon secretion (effect),"Example 2, donor AFBM114, 100 μM, 8 mM glucose (FIG. 8)",increased glucagon secretion
same,increase in glucagon secretion compared with 5 mM arginine,"Example 2, donor AFCS437, 100 μM",similarly to 5 mM arginine
same,dose dependency of the increase in glucagon secretion,,significant dose dependency
same,fold induction at 10 µM,1 mM glucose (Example 1),1.8
same,fold induction at 10 µM,8 mM glucose (Example 2),1.8
same,fold induction at 100 µM,1 mM glucose (Example 1),7.5
same,fold induction at 100 µM,8 mM glucose (Example 2),2
same,increase in glucagon secretion compared with 5 mM arginine,"previously tested donor (AFBM114), 100 μM",similarly to 5 mM arginine
CN1CCC(=C2c3ccccc3C=Cc3ccccc32)CC1 [cyproheptadine hydrochloride],"increase in glucagon secretion, 1 mM glucose versus 8 mM glucose",[1],higher at 1 mM glucose than at 8 mM glucose
same,glucagon secretion (effect),[2],increased glucagon secretion
"O=C(O)COCCN1CCN(C(c2ccccc2)c2ccc(Cl)cc2)CC1 (stereo not drawn) [Cetirizine, cetirizine dihydrochloride]",dose dependency of the increase in glucagon secretion,,much less pronounced
same,glucagon secretion (effect),"Example 2, donor AFCS437, all tested concentrations, compared to vehicle at 1 mM glucose (FIG. 10)",only slightly increased glucagon secretion
N=C(N)NCCC[C@H](N)C(=O)O [L-arginine],"increase in glucagon secretion, 1 mM glucose versus 8 mM glucose",[1],higher at 1 mM glucose than at 8 mM glucose
same,glucagon secretion (effect),[2],increased glucagon secretion

# Source: US20200405728A1, “METHODS OF PREVENTING AND TREATING HYPOGLYCEMIA IN TYPE 1 AND TYPE 2 DIABETES PATIENTS” (Ferox Therapeutics LLC, priority 2018, published 2020)
